Measurements reported in PMC11839852, “Preclinical comparison of (radio)lanthanides using mass spectrometry and nuclear imaging techniques: biodistribution of lanthanide-based tumor-targeting agents and lanthanides in ionic form” (European Journal of Nuclear Medicine and Molecular Imaging, 2024).
Where two headings read alike, the source gives them in different places. Marks after values point to notes of the source that are not given here. Blank lines part the entries; values can stand above or below the compound they belong to.

Tests used:
[1] = system: PC-3 PIP/flu tumor-bearing mice; conditions: Ln-PSMA-617; for Tissue uptake: Blood / Tissue uptake: Bone / Tissue uptake: Heart / Tissue uptake: Intestines / Tissue uptake: Kidneys / Tissue uptake: Liver / Tissue uptake: Lung / Tissue uptake: Muscle / Tissue uptake: Salivary glands / Tissue uptake: Spleen / Tissue uptake: Stomach: PC-3 PIP/flu tumor-bearing mice; for Tissue uptake: PC-3 flu tumor: PSMA-negative xenograft; for Tissue uptake: PC-3 PIP tumor: PSMA-positive xenograft; for PC-3 PIP tumor-to-background organ ratios: Tumor-to-blood / PC-3 PIP tumor-to-background organ ratios: Tumor-to-liver: estimated ratios (organ <0.5% ID/g)
[2] = system: non-tumor-bearing immunocompetent FVB mice; test: Biodistribution of lanthanide chloride salts LnCl3 (multiplexed ICP-MS); assay type: in vivo; conditions: for Tissue uptake: Blood / Tissue uptake: Bone / Tissue uptake: Brain / Tissue uptake: Heart / Tissue uptake: Intestines / Tissue uptake: Kidneys / Tissue uptake: Liver / Tissue uptake: Lung / Tissue uptake: Muscle / Tissue uptake: Pancreas / Tissue uptake: Salivary glands / Tissue uptake: Spleen / Tissue uptake: Stomach: non-tumor-bearing mice
[3] = 24 h p.i., estimated ratios (organ <0.5% ID/g)
[4] = 96 h p.i., estimated ratios (organ <0.5% ID/g)

Structure (SMILES): O=C([O-])CN1CCN(CC(=O)[O-])CCN(CC(=O)NCC2CCC(C(=O)NC(Cc3ccc4ccccc4c3)C(=O)NCCCCC(NC(=O)NC(CCC(=O)O)C(=O)O)C(=O)O)CC2)CCN(CC(=O)[O-])CC1.[Lu+3] (stereo not drawn) [[^175Lu]Lu-PSMA-617]
PC-3 PIP tumor-to-background organ ratios: Tumor-to-kidney ([1]; 1 h p.i.): 2.7 ± 0.8
Tissue uptake: Blood ([1]; 1 h p.i.): <0.5 % ID/g
Tissue uptake: Bone ([1]; 1 h p.i.): <0.5 % ID/g
Tissue uptake: Heart ([1]; 1 h p.i.): <0.5 % ID/g
Tissue uptake: Intestines ([1]; 1 h p.i.): <0.5 % ID/g
Tissue uptake: Kidneys ([1]; 1 h p.i.): 10 ± 4 % ID/g
Tissue uptake: Liver ([1]; 1 h p.i.): <0.5 % ID/g
Tissue uptake: Lung ([1]; 1 h p.i.): <0.5 % ID/g
Tissue uptake: Muscle ([1]; 1 h p.i.): <0.5 % ID/g
Tissue uptake: Salivary glands ([1]; 1 h p.i.): <0.5 % ID/g
Tissue uptake: Spleen ([1]; 1 h p.i.): 0.64 ± 0.48 % ID/g
Tissue uptake: Stomach ([1]; 1 h p.i.): 0.56 ± 0.19 % ID/g
Tissue uptake: PC-3 flu tumor ([1]; 1 h p.i.): <0.5 % ID/g
Tissue uptake: PC-3 PIP tumor ([1]; 1 h p.i.): 25 ± 3 % ID/g
PC-3 PIP tumor-to-background organ ratios: Tumor-to-blood ([1]; 1 h p.i.): >51^*
PC-3 PIP tumor-to-background organ ratios: Tumor-to-liver ([1]; 1 h p.i.): >51^*
PC-3 PIP tumor-to-background organ ratios: Tumor-to-kidney ([1]; 4 h p.i.): 18 ± 3
Tissue uptake: Blood ([1]; 4 h p.i.): <0.5 % ID/g
Tissue uptake: Bone ([1]; 4 h p.i.): <0.5 % ID/g
Tissue uptake: Heart ([1]; 4 h p.i.): <0.5 % ID/g
Tissue uptake: Intestines ([1]; 4 h p.i.): <0.5 % ID/g
Tissue uptake: Kidneys ([1]; 4 h p.i.): 1.4 ± 0.4 % ID/g
Tissue uptake: Liver ([1]; 4 h p.i.): <0.5 % ID/g
Tissue uptake: Lung ([1]; 4 h p.i.): <0.5 % ID/g
Tissue uptake: Muscle ([1]; 4 h p.i.): <0.5 % ID/g
Tissue uptake: Salivary glands ([1]; 4 h p.i.): <0.5 % ID/g
Tissue uptake: Spleen ([1]; 4 h p.i.): <0.5 % ID/g
Tissue uptake: Stomach ([1]; 4 h p.i.): <0.5 % ID/g
Tissue uptake: PC-3 flu tumor ([1]; 4 h p.i.): <0.5 % ID/g
Tissue uptake: PC-3 PIP tumor ([1]; 4 h p.i.): 23 ± 3 % ID/g
PC-3 PIP tumor-to-background organ ratios: Tumor-to-blood ([1]; 4 h p.i.): >47^*
PC-3 PIP tumor-to-background organ ratios: Tumor-to-liver ([1]; 4 h p.i.): >47^*

Organ ratios: Blood-to-bone ([2]; 1 h p.i.): 0.38 ± 0.23
Organ ratios: Blood-to-liver ([2]; 1 h p.i.): 0.61 ± 0.35
Organ ratios: Liver-to-bone ([2]; 1 h p.i.): 0.64 ± 0.13
Tissue uptake: Blood ([2]; 1 h p.i.): 6.4 ± 2.7 % ID/g
Tissue uptake: Bone ([2]; 1 h p.i.): 18 ± 3 % ID/g
Tissue uptake: Brain ([2]; 1 h p.i.): <0.5 % ID/g
Tissue uptake: Heart ([2]; 1 h p.i.): 3.6 ± 1.5 % ID/g
Tissue uptake: Intestines ([2]; 1 h p.i.): 3.2 ± 1.1 % ID/g
Tissue uptake: Kidneys ([2]; 1 h p.i.): 7.3 ± 1.7 % ID/g
Tissue uptake: Liver ([2]; 1 h p.i.): 11 ± 3 % ID/g
Tissue uptake: Lung ([2]; 1 h p.i.): 5.6 ± 2.2 % ID/g
Tissue uptake: Muscle ([2]; 1 h p.i.): 1.5 ± 0.6 % ID/g
Tissue uptake: Pancreas ([2]; 1 h p.i.): 2.6 ± 0.8 % ID/g
Tissue uptake: Salivary glands ([2]; 1 h p.i.): 2.6 ± 0.9 % ID/g
Tissue uptake: Spleen ([2]; 1 h p.i.): 3.8 ± 0.5 % ID/g
Tissue uptake: Stomach ([2]; 1 h p.i.): 5.8 ± 2.1 % ID/g
Organ ratios: Liver-to-bone ([2]; 24 h p.i.): 0.49 ± 0.19
Organ ratios: Blood-to-bone [2, 3]: <0.02^*
Organ ratios: Blood-to-liver [2, 3]: <0.05^*
Tissue uptake: Blood ([2]; 24 h p.i.): <0.5 % ID/g
Tissue uptake: Bone ([2]; 24 h p.i.): 25 ± 5 % ID/g
Tissue uptake: Brain ([2]; 24 h p.i.): <0.5 % ID/g
Tissue uptake: Heart ([2]; 24 h p.i.): 0.54 ± 0.06 % ID/g
Tissue uptake: Intestines ([2]; 24 h p.i.): 0.61 ± 0.02 % ID/g
Tissue uptake: Kidneys ([2]; 24 h p.i.): 3.7 ± 1.0 % ID/g
Tissue uptake: Lung ([2]; 24 h p.i.): 0.88 ± 0.13 % ID/g
Tissue uptake: Muscle ([2]; 24 h p.i.): <0.5 % ID/g
Tissue uptake: Pancreas ([2]; 24 h p.i.): <0.5 % ID/g
Tissue uptake: Salivary glands ([2]; 24 h p.i.): 0.55 ± 0.17 % ID/g
Tissue uptake: Spleen ([2]; 24 h p.i.): 3.5 ± 0.9 % ID/g
Tissue uptake: Stomach ([2]; 24 h p.i.): 1.8 ± 0.3 % ID/g
Tissue uptake: Liver ([2]; 24 h p.i., listed as lutetium): 12 ± 3 % ID/g
Tissue uptake: Liver ([2]; 24 h p.i., listed as natLu): ~ 12 % ID/g
Organ ratios: Liver-to-bone ([2]; 96 h p.i.): 0.14 ± 0.04
Organ ratios: Blood-to-bone [2, 4]: <0.01^*
Organ ratios: Blood-to-liver [2, 4]: <0.11^*
Tissue uptake: Blood ([2]; 96 h p.i.): <0.5 % ID/g
Tissue uptake: Bone ([2]; 96 h p.i.): 35 ± 4 % ID/g
Tissue uptake: Brain ([2]; 96 h p.i.): <0.5 % ID/g
Tissue uptake: Heart ([2]; 96 h p.i.): 0.89 ± 0.25 % ID/g
Tissue uptake: Intestines ([2]; 96 h p.i.): 0.54 ± 0.14 % ID/g
Tissue uptake: Kidneys ([2]; 96 h p.i.): 2.7 ± 0.2 % ID/g
Tissue uptake: Liver ([2]; 96 h p.i.): 4.8 ± 0.9 % ID/g
Tissue uptake: Lung ([2]; 96 h p.i.): 1.1 ± 0.2 % ID/g
Tissue uptake: Muscle ([2]; 96 h p.i.): <0.5 % ID/g
Tissue uptake: Pancreas ([2]; 96 h p.i.): <0.5 % ID/g
Tissue uptake: Salivary glands ([2]; 96 h p.i.): 0.50 ± 0.06 % ID/g
Tissue uptake: Spleen ([2]; 96 h p.i.): 2.3 ± 0.2 % ID/g
Tissue uptake: Stomach ([2]; 96 h p.i.): 2.5 ± 0.2 % ID/g
Structure (SMILES): [Cl][Lu]([Cl])[Cl] [[^175Lu]LuCl3]
